# Laboratory results published in patent publication US20230232827A1, “METHOD FOR C[…] RUST FUNGUS RESISTANT TO QoI FUNGICIDES” (SUMITOMO CHEMICAL COMPANY, LIMITED, priority 2020, published 2023).
# Test system: soybean rust fungus (Phakopsora pachyrhizi) having an amino acid substitution of F129L in a mitochondrial cytochrome b protein
# Test: Leaf disc test of control of soybean rust (lesion area) after spraying the test compound
# Format: in vivo
# Settings: Comparative Test Example 1, according to Test Example 1
# Experimental: A true leaf of a soybean (cultivar: Kurosengoku) was cut into a diameter of 1 cm to prepare each leaf disc. To each well of a 24 well microplate was dispensed 1 mL of an agar medium (agar concentration 1.2%), and then one of said leaf disc was placed on each well. To a mixture of Sorpol (registered trademark) 1200KX (0.5 μL), DMSO (4.5 μL), and xylene (5 μL) was added a DMSO solution (20 μL) comprising a test compound (10000 ppm), and the resulting mixture was mixed. The resulting mixture was diluted with ion exchange water to prepare a spray solution comprising a prescribed concentration of the test compound. Said spray solution was sprayed into each leaf disc at a ratio of 10 μL per leaf disc. After 1 day, an aqueous suspension of spores of soybean rust fungus (Phakopsora pachyrhizi) having an amino acid substitution of F129L in a mitochondrial cytochrome b protein (1.0×10^5/mL) was inoculated by spraying on each leaf disc. After the inoculation, the microplate was placed into an artificial climate chamber (Lighting: 6 hours, Lights-out: 18 hours, Temperature: 23° C., Humidity: 60%). After 1 day, the leaf discs were air-dried until water droplets on the surfaces of the leaf discs disappeared, and the microplate was placed into the artificial climate chamber again for 12 days. Then, lesion area of soybean rust was investigated. As a result, when the prescribed concentration was 50 ppm, each lesion area of leaf disc treated with any one of the Present compound 2 to 13, 15 to 30, 33 to 40, 42 to 49, 52 to 56, 58, 60, 65, 66, or 74 to 79 as the test compound was 30% or less relative to the lesion area of non-treated leaf disc. Here, the term of “non-treated” means that a spray solution comprising a test compound was not sprayed into a leaf disc.
# Each test is carried out according to the Test Example 1 by using any one of the Present compound S as the test compound with a prescribed concentration of 12.5 ppm. As a result, control effects on soybean rust can be confirmed in the leaf discs treated with test compounds.
# Each test is carried out according to the Test Example 1 by using any one of the Present compound S as the test compound with a prescribed concentration of 3.1 ppm. As a result, control effects on soybean rust can be confirmed in the leaf discs treated with test compounds.
# Each test was carried out according to the Test Example 1 by using the Present compound 4, 3, 11, or 42, or azoxystrobin, dimoxystrobin, or metominostrobin as the test compound with a prescribed concentration of 50 ppm.
row,Compound,Lesion area (%) at the concentration of 50 ppm [%]
1,"CNC(=O)/C(=N/OC)c1ccccc1Oc1ccccc1 [Metominostrobin, reference compound]",100
2,"CNC(=O)/C(=N/OC)c1ccccc1COc1cc(C)ccc1C [Dimoxystrobin, reference compound]",100
3,"CO/C=C(/C(=O)OC)c1ccccc1Oc1cc(Oc2ccccc2C#N)ncn1 [Azoxystrobin, reference compound]",100
4,CO/C=C(/C(=O)OC)n1ccc2ccc(/C(C)=N/OC)cc21 [Present compound 42],0
5,CO/C=C(/C(=O)OC)n1c2ccccc2c2ccc(Br)cc21 [Present compound 4],0
6,CO/C=C(/C(=O)OC)n1ncc2ccc(-c3ccccc3)cc21 [Present compound 3],0
7,CO/C=C(/C(=O)OC)n1ccc2ccc(C#CC3CC3)cc21 [Present compound 11],0
